Results on 3 compounds are retold here after paper PMC4433269 (PLoS ONE, 2015).

Data set [1] deals with everted rat gut sacs. Particulars: for ER(P2/P0): Papp with 6-gingerol / Papp alone; for ER(P1/P0): Papp with Rhizoma Zingiberis extract / Papp alone. As to the method: (§1) All of the rats were starved for 24 h before the experiments. The rats were sacrificed by decapitation, and the duodenum, jejunum, ileum and colon were immediately removed and placed in a 37°C K-R solution that was oxygenated (O2/CO2, 95%:5%). After washing in order with K-R solution at room temperature, the four intestinal segments were everted on a glass rod (3 mm in diameter) with one end of each clamped before filling with fresh oxygenated K-R solution. The intestines were then sealed with braided sutures. Each sac was placed in a 10 mL test tube that contained 8 mL of oxygenated drug-containing K-R solution at 37°C. Then, 0.1 mL of serosal fluid was collected at the appropriate time points, and an equal volume of K-R solution was added to the serosal side. Finally, the solution in the sacs was collected to accurately calculate the volume, and each sac was accurately weighed before and after being cut open. The area of each sac was measured. All of the samples were analyzed using the UPLC-MS method. After analysis, the amounts (ng/mm^2) of absorbed aconitine and digoxin were calculated. Each experiment was repeated five times, and the presented data represent the means ± S.D. This study was conducted in accordance with the internationally accepted principles for laboratory animal use and care as found in the European Community guidelines.
(§2) The analytical UPLC-MS system consisted of an Acquity Ultra Performance LC with a Xevo TQ mass spectrometer as the detector, and it was equipped with an electrospray source in the positive ion mode (Waters Co., USA). Separation was performed on a BEH Extend-C18 column (2.1*50 mm, 1.7 μm, Agilent Co., USA). The mobile phase was composed of methanol mixed with acetonitrile in equal volumes (A) and an aqueous solution of ammonium acetate at pH 10.5 (B). The gradient elution conditions were as follows: 0–1 min 10–43% A, 2–4.5 min 55–100% A, and 5–7 min 10% A. The flow rate was 0.3 mL/min. The column temperature was 35°C throughout the entire detection process. All of the samples were freeze-dried after being collected from the serosal side, and the residue was dissolved with 0.1 mL of the mobile phase (A) prior to injecting 5 μL of each sample into the UPLC system.
To study the effect of the Rhizoma Zingiberis extract on the concentration of aconitine in the rat gut sacs, the apparent […] coefficient (Papp) was calculated using the equation Papp = [V/(A·C0)]·dC/dt, where V represents the fluid volume in the serosal side, A represents the superficial area of the gut sac, and C0 represents the initial concentration of aconitine outside the gut sac.
The experiment described in this section was conducted under the same conditions as decribed in the “Effect of the Rhizoma Zingiberis extract on the level of aconitine in the rat gut sacs” section.

Data set [2] has as its system P-glycoprotein. Briefly: Effect on the level of the P-gp substrate digoxin in rat gut sacs. It is filed as in vitro ADME. As to the method: as §1
The flow rate was 0.3 mL/min.

Data set [3] deals with everted rat gut sacs. It is filed as in vitro ADME. Particulars: 120 min. The method, then: as §1, §2
The intestinal kinetic absorptive behavior of aconitine was investigated in the gut sac model cultured in K-R nutrient solution for 120 min. The accumulative absorbed dose (Q) of aconitine was calculated for use in zero-level, primary and Higuchi equation fitting. Then, the determination coefficient (R^2) of the equation was set as the evaluation criterion for the quality of the fit. […] The slope of the fitting equation represents the absorption rate constant (ka).

For data set [4], the system named is P-glycoprotein. Particulars: deduced from verapamil effect in rat gut sacs. The method, then:
as §1

In data set [5] the test system is everted rat gut sacs. Briefly: Viability of the everted rat gut sacs (serosal/mucosal glucose ratio). Particulars: incubation up to 120 min; Fig 5.
Experimental: To verify the integrity and viability of the gut sacs, glucose was collected from both the serosal side and the mucosal side of the rat gut sacs at a fixed time, and glucose was detected using a Waters UPLC/MS (Waters Co., USA), which is more accurate and sensitive than a UV-Vis detector. Separation was performed on a Hypersil NH column (4.6*150 mm, 25 μm, Elite Co., China). Although only glucose was available for detection in this part, the column separation was essential because large amounts of inorganic salts were present in the K-R nutrient solution. A mobile phase composed of 80% acetonitrile (A) and 20% distilled water (B) was used for isocratic elution. The retention time for glucose was 7.37 min. The peak area ratio of glucose in the serosal side to that in the mucosal side was used to validate the viability of the everted rat gut sacs.
The format of data set [6] is physicochemical. The conditions noted are these: for Stability RSD%: 0 h, 24 h and 48 h; for Stability of QC samples: RSD % less than 15%. As to the method:
The selectivity was examined by detecting blank K-R nutrient solutions, which were useful only if no peaks appeared at the retention times of aconitine and digoxin. The inter-day and intra-day accuracies were evaluated by calculating the percent relative standard deviation (RSD %) of the concentration of the quality control (QC) samples on the same day or over three days. The matrix effect was determined by comparing the concentrations of samples with standard solution added into a blank K-R solution after extraction with QC samples. The extraction recovery was calculated by comparing the concentration of normally extracted samples with that of the QC samples. The stability was evaluated by calculating the RSD % of the concentration of the quality control (QC) samples at 0 h, 24 h and 48 h. The accuracy, matrix effect, extraction recovery and stability were all replicated by five QC samples at three levels. The LOD and LLOQ were the concentrations of QC samples with peak signal-to-noise ratios (S/N) of at least 3 and 10, respectively.

Data set [7] can be described thus: Solubility in tested solvents during sample processing. Particulars: tested solvents: methanol, ethanol, acetonitrile, distilled water, DMSO. As to the method:
Because there were numerous inorganic salts that were harmful to the mass spectrometer in the everted sac samples, dechloridation was the first consideration when we developed the processing method. We applied lyophilization as the first step for prolonging the resting period of the samples to avoid the decomposition of unstable components. […] Therefore, the second step consisted of dissolving aconitine in methanol. […] The third step consisted of centrifuging, and 5 μL of the supernatant liquid was injected into the UPLC/MS.

In data set [8] the test system is P-glycoprotein. Also noted: method as in earlier work. The conditions noted are these: Caco-2 cell culture model; cited from earlier work.
The mark [9] stands for this setting: Middle concentration QC samples.

Like-named read-outs stand apart in the source and are kept apart here.

For `CCCCC[C@H](O)CC(=O)CCc1ccc(O)c(OC)c1` [6-gingerol], in data set [1] (added to high aconitine concentration, all four gut sacs), the “Effect on the level (Papp) of aconitine in the rat gut sacs” value is listed as “P2 value is smaller than the P0 value in each gut sac”. Also, in data set [2] (co-incubated with digoxin, every gut sac, Fig 7, Fig 9), the “Effect on digoxin content in gut sacs” value is recorded as “decreased”. For the same compound, the “Effect on P-glycoprotein (inducer / revulsant)” value in data set [2] (deduced from decreased digoxin level in rat gut sacs) is “potential revulsant of P-gp”.
For `CCN1C[C@]2(COC)[C@H](O)C[C@H](OC)[C@@]34[C@@H]5C[C@@]6(O)[C@H](OC(=O)c7ccccc7)[C@@H]5[C@@](OC(C)=O)([C@@H]([C@H](OC)[C@H]23)[C@@H]14)[C@@H](O)[C@@H]6OC` [aconitine], the “Fitting equation (zero-level; slope = absorption rate constant ka)” value is “Q = 0.01937t” in data set [3] (colon, aconitine 75 ng/mL); “Q = 0.1302t” in data set [3] (colon, aconitine 750 ng/mL); “Q = 2.000t” in data set [3] (colon, aconitine 7500 ng/mL); “Q = 0.02546t” in data set [3] (duodenum, aconitine 75 ng/mL); “Q = 0.05406t” in data set [3] (duodenum, aconitine 750 ng/mL); “Q = 3.528t” in data set [3] (duodenum, aconitine 7500 ng/mL). Moreover, the “Fitting equation (zero-level; slope = absorption rate constant ka)” value is on record as “Q = 0.01294t” in data set [3] (ileum, aconitine 75 ng/mL); “Q = 0.2906t” in data set [3] (ileum, aconitine 750 ng/mL); “Q = 2.529t” in data set [3] (ileum, aconitine 7500 ng/mL); “Q = 0.02977t” in data set [3] (jejunum, aconitine 75 ng/mL); “Q = 0.2028t” in data set [3] (jejunum, aconitine 750 ng/mL); “Q = 3.2531t” in data set [3] (jejunum, aconitine 7500 ng/mL). Further, the “ER(P2/P0)” value in data set [1] (colon) is reported as 0.4363; in data set [1] (duodenum) it was 0.3602; in data set [1] (ileum), 0.3464; in data set [1] (jejunum), 0.3979. Besides, the “ER(P1/P0)” value in data set [1] (colon) is 0.6695; in data set [1] (duodenum), 0.2703; in data set [1] (ileum), 0.3615; in data set [1] (jejunum) it was 0.3942. Further, in data set [4], the P-glycoprotein substrate status entry is on record as “potential substrate of P-glycoprotein”. The “Toxicity to gut sac tissue (glucose serosal/mucosal ratio)” value in data set [5] is “did not induce toxicity in the gut sac tissue”. The “Stability RSD%” value in data set [6] (High concentration QC samples) came out at 10.04%; in data set [6] (Low concentration QC samples), 2.448%; in data set [6] (setting [9]) it was 11.72%. Besides, in data set [6], the “Stability of QC samples” value is reported as “stable for 48 h”. Moreover, the Solubility in solvents entry in data set [7] was “able to be dissolved in methanol”. The “P-glycoprotein substrate / inhibitor status” value in data set [8] was “both a substrate and an inhibitor of P-glycoprotein”.
On to `C[C@H]1O[C@@H](O[C@H]2[C@@H](O)C[C@H](O[C@H]3[C@@H](O)C[C@H](O[C@H]4CC[C@@]5(C)[C@H](CC[C@@H]6[C@@H]5C[C@@H](O)[C@]5(C)[C@@H](C7=CC(=O)OC7)CC[C@]65O)C4)O[C@@H]3C)O[C@@H]2C)C[C@H](O)[C@@H]1O` [digoxin, reference compound], for which the entries for the “Stability RSD%” value in data set [6] (High concentration QC samples), in data set [6] (Low concentration QC samples) and in data set [6] (setting [9]) were 1.336%, 2.036% and 4.913%, respectively. Also, the “Stability of QC samples” value in data set [6] was “stable for 48 h”. In addition, the Solubility in solvents result in data set [7] is listed as “only could be dissolved in dimethyl sulfoxide (DMSO) among the tested solvents”.
